From US20230083885A1, “MODULATORS OF INTEGRATED STRESS RESPONSE PATHWAY” (Praxis Biotech LLC, priority 2021, published 2023)

tested on: ATF4; test: ATF4 expression inhibition assay (ATF4 5'UTR luciferase reporter, thapsigargin-stressed); type: cell-based; conditions: Homo sapiens, HEK-293T, 3 h, read-out: ATF4 inhibition
Procedure: The ATF4 reporter was prepared by fusing the human full length 5′UTR of ATF4 (NCBI Accession No. BC022088.2) upstream of the firefly luciferase coding sequence lacking the initiator methionine. The fused sequence was cloned into pLenti-EF1a-C-Myc-DDK-IRES-Puro cloning vector (Origen #PS100085) using standard methods.
HEK293T cells carrying the ATF4 luciferase reporter were plated on 96-well plates (Nunc) at 10,000 cells per well. Cells were treated two days after seeding with 100 nM thapsigargin (Tg) (Sigma-Aldrich #T9033) in the presence of different concentrations of selected compounds ranging from 0.1 nM to 10 μM. Cells without treatment or cells treated with Tg alone were used as controls. Assay plates containing cells were incubated for 3 hours at 37° C.
Luciferase reactions were performed using Luciferase Assay System (Promega #E1501) as specified by the manufacturer. Luminescence was read with an integration time of 1 s and a gain of 110 using a Cytation-5 multi-mode microplate reader (BioTek).

Work on O=C(Nc1nc2cc(Cl)ccc2o1)[C@H]1CC[C@H](c2nnc(CO[C@H]3C[C@@H](OC(F)(F)F)C3)o2)CC1 [Compound 41, trans-N-(5-chlorobenzo[d]oxazol-2-yl)-4-(5-((cis-3-(trifluoromethoxy)cyclobutoxy)methyl)-1,3,4-oxadiazol-2-yl)cyclohexanecarboxamide] yielded an IC50 of 100 to 1000 nM.

same assay, conditions: Homo sapiens, HEK-293T; HEK293T cells carrying ATF4 luciferase reporter, 100 nM thapsigargin, 3 hours; read-out: ATF4 inhibition

O=C(Nc1ccc2cc(Cl)ccc2n1)[C@H]1CC[C@H](c2nnc([C@@H]3CNc4cc(Cl)ccc4O3)o2)CC1 (single isomer, unassigned) [Compound 245] and O=C(Nc1ccc2cc(Cl)ccc2n1)[C@H]1CC[C@H](c2nnc([C@H]3CNc4cc(Cl)ccc4O3)o2)CC1 (single isomer, unassigned) [Compound 246] fall in the same range of IC50: 100 to 1000 nM for the first, 100 to 1000 nM for the second.

O=C(NC[C@H]1CC[C@H](c2nnc(-c3ccc(Cl)cc3)o2)CC1)c1ccc(C(F)(F)F)cn1 [Compound 20, trans-N-((4-(5-(4-chlorophenyl)-1,3,4-oxadiazol-2-yl)cyclohexyl)methyl)-5-(trifluoromethyl)picolinamide] and O=C(NC[C@H]1CC[C@H](c2nnc(-c3ccc(Cl)cc3)o2)CC1)c1ccc(C(F)(F)F)nc1 [Compound 21, trans-N-((4-(5-(4-chlorophenyl)-1,3,4-oxadiazol-2-yl)cyclohexyl)methyl)-6-(trifluoromethyl)nicotinamide] fall in the same range of IC50: 100 to 1000 nM for the first, 100 to 1000 nM for the second.

Compared with O=C(Nc1ccc2cc(Cl)ccc2n1)[C@H]1CC[C@H](c2nnc(CO[C@H]3C[C@@H](OC(F)(F)F)C3)o2)CC1 [Compound 38, trans-N-(6-chloroquinolin-2-yl)-4-(5-((cis-3-(trifluoromethoxy)cyclobutoxy)methyl)-1,3,4-oxadiazol-2-yl)cyclohexanecarboxamide], O=C(Nc1nc2cc(Cl)ccc2s1)[C@H]1CC[C@H](c2nnc(CO[C@H]3C[C@@H](OC(F)(F)F)C3)o2)CC1 [Compound 39, trans-N-(5-chlorobenzo[d]thiazol-2-yl)-4-(5-((cis-3-(trifluoromethoxy)cyclobutoxy)methyl)-1,3,4-oxadiazol-2-yl)cyclohexanecarboxamide] is higher in IC50: 100 to 1000 nM for the first, over 1000 nM for the second.

Compared with O=C(Nc1ccc2cc(Cl)ccc2n1)[C@H]1CC[C@H](c2nnc(COc3ccc(Cl)cc3)o2)CC1 [Compound 40, trans-4-(5-((4-chlorophenoxy)methyl)-1,3,4-oxadiazol-2-yl)-N-(6-chloroquinolin-2-yl)cyclohexanecarboxamide], O=C(NCc1cc2cc(Cl)ccc2o1)[C@H]1CC[C@H](c2nnc(COc3ccc(Cl)cc3)o2)CC1 [Compound 53, trans-N-((5-chlorobenzofuran-2-yl)methyl)-4-(5-((4-chlorophenoxy)methyl)-1,3,4-oxadiazol-2-yl)cyclohexanecarboxamide] is higher in IC50: 10 to 100 nM for the first, 100 to 1000 nM for the second.

O=C(Nc1ccc2cc(Cl)ccc2n1)C1CCN(c2nnc(-c3ccc(Cl)cc3)o2)CC1 [Compound 49, 1-(5-(4-chlorophenyl)-1,3,4-oxadiazol-2-yl)-N-(6-chloroquinolin-2-yl)piperidine-4-carboxamide] and O=C(Nc1ccc2cc(Cl)ccc2n1)[C@H]1CC[C@@H](c2cnn(-c3ccc(Cl)cc3)c2)CC1 [Compound 249, cis-4-(1-(4-chlorophenyl)-1H-pyrazol-4-yl)-N-(6-chloroquinolin-2-yl)cyclohexanecarboxamide] fall in the same range of IC50: 100 to 1000 nM for the first, 100 to 1000 nM for the second.

O=C(Nc1ccc2cc(Cl)ccc2n1)C1CCN(c2nnc([C@H]3C[C@@H](OC(F)(F)F)C3)o2)CC1 [Compound 50, N-(6-chloroquinolin-2-yl)-1-(5-(cis-3-(trifluoromethoxy)cyclobutyl)-1,3,4-oxadiazol-2-yl)piperidine-4-carboxamide] and O=C(Nc1ccc2cc(Cl)ccc2n1)[C@H]1CC[C@H](c2nnc([C@H]3C[C@@H](C(F)(F)F)C3)o2)CC1 [Compound 248, trans-N-(6-chloroquinolin-2-yl)-4-(5-(cis-3-(trifluoromethyl)cyclobutyl)-1,3,4-oxadiazol-2-yl)cyclohexanecarboxamide] fall in the same range of IC50: 100 to 1000 nM for the first, 100 to 1000 nM for the second.

O=C(NCc1cc2cc(Cl)ccc2o1)[C@H]1CC[C@H](c2nnc(-c3ccc(Cl)cc3)o2)CC1 [Compound 51, trans-N-((5-chlorobenzofuran-2-yl)methyl)-4-(5-(4-chlorophenyl)-1,3,4-oxadiazol-2-yl)cyclohexanecarboxamide] and O=C(NCc1cc2cc(Cl)ccc2o1)[C@H]1CC[C@H](c2nnc(-c3cc4cc(Cl)ccc4o3)o2)CC1 [Compound 54, trans-4-(5-(5-chlorobenzofuran-2-yl)-1,3,4-oxadiazol-2-yl)-N-((5-chlorobenzofuran-2-yl)methyl)cyclohexanecarboxamide] fall in the same range of IC50: 100 to 1000 nM for the first, 100 to 1000 nM for the second.

First: O=C(Nc1nc2cc(Cl)ccc2s1)[C@H]1CC[C@H](c2nnc([C@H]3C[C@@H](OC(F)(F)F)C3)o2)CC1 [Compound 52, trans-N-(5-chlorobenzo[d]thiazol-2-yl)-4-(5-(cis-3-(trifluoromethoxy)cyclobutyl)-1,3,4-oxadiazol-2-yl)cyclohexanecarboxamide]
Second: O=C(Nc1nc2cc(Cl)ccc2o1)[C@H]1CC[C@H](c2nnc([C@H]3C[C@@H](OC(F)(F)F)C3)o2)CC1 [Compound 241, trans-N-(5-chlorobenzo[d]oxazol-2-yl)-4-(5-(3-(cis-trifluoromethoxy)cyclobutyl)-1,3,4-oxadiazol-2-yl)cyclohexanecarboxamide]
The IC50 of the first is lower: 10 to 100 nM for the first, 100 to 1000 nM for the second.

O=C(NN1CCC(c2nnc([C@H]3C[C@@H](OC(F)(F)F)C3)o2)CC1)c1cc2cc(Cl)ccc2o1 [Compound 251, 5-chloro-N-(4-(5-(cis-3-(trifluoromethoxy)cyclobutyl)-1,3,4-oxadiazol-2-yl)piperidin-1-yl)benzofuran-2-carboxamide] and O=C(NN1CCC(c2nnc([C@H]3C[C@@H](OC(F)(F)F)C3)o2)CC1)C1CNc2cc(Cl)ccc2O1 (some centres unmarked) [Compound 252, 6-chloro-N-(4-(5-((1s,3s)-3-(trifluoromethoxy)cyclobutyl)-1,3,4-oxadiazol-2-yl)piperidin-1-yl)-3,4-dihydro-2H-benzo[b][1,4]oxazine-2-carboxamide] cannot be ordered by IC50: under 10 nM for the first, under 10 nM for the second.

For O=C(NC[C@H]1CC[C@H](c2nnc(-c3ccc(Cl)cc3)o2)CC1)[C@H]1C[C@@H](O)c2cc(Cl)ccc2O1 [Compound 253, (2R,4R)-6-chloro-N-((trans-4-(5-(4-chlorophenyl)-1,3,4-oxadiazol-2-yl)cyclohexyl)methyl)-4-hydroxychroman-2-carboxamide], the IC50 was 100 to 1000 nM.
